Experimental data published in patent publication US20060003027A1, “Composition and method for reducing side effects of indole-3-carbinol and derivatives” (priority 2004, published 2006).

What was measured:
[1] = tested on: HPV-induced benign tumors of laryngeal tissue; settings: mouse model; cited from earlier work
[2] = Side effects observed in treated patients (case reports); format: in vivo, human
Description: (§1) This patient was administered a high dosage of I3C, specifically 110 mg/per dose, twice daily. […] A composition (composition 1) in accordance with the present invention was then given to this patient. Composition 1 is as set forth below:
(§2) Composition 3 was then administered to this patient for a period of eight weeks.

[3] = tested on: mammary carcinogenesis; settings: rat model; cited from earlier work
[4] = tested on: cervical or vaginal neoplasia; test: Treatment of female patients with coccygeal-area pain and abnormal pap smear (pain, pap smear, biopsy); format: in vivo, human; settings: I3C alone, 110 mg per dose twice daily; Example 1 patient
Description: A patient, and 110 lbs. in weight, has complained of pain in the area of the coccygeal vertebra, which may reflect cervical inflammation, and/or cervical or vaginal neoplasia.
as §1
Composition 2 in accordance with the present invention was administered to the patient. Composition 2 is as set forth below:
as §2

Q: Which results are given for `OCc1c[nH]c2ccccc12` [Composition I3C, Indole-3-carbinol]?
A: growth of HPV-induced benign tumors of laryngeal tissue [1]: inhibits growth; side effects experienced ([2]; I3C alone, 110 mg per dose twice daily, about a week, patient, 110 lbs): headache, dizziness and fatigue; undesirable side effects ([2]; I3C at 200 mg/day and above 200 mg/day, some people of regular body weight): headache, dizziness, stomach disturbance, convulsion, vomiting, and fatigue; inhibition of mammary carcinogenesis [3]: effective in inhibiting mammary carcinogenesis; pain in the area of the coccygeal vertebra [4]: relief from the pain
